Earlier results on 1 molecule are cited in patent US20030211945A1, “Natural herbicide compositions” (priority 2002, published 2003).

Like-named read-outs stand apart in the source and are kept apart here.

The data set concerns selected weeds.

For the molecule `CC(=O)O` [acetic acid], the weed control result runs as follows: (concentrations of acetic acid below about 5%) “variable results”; (high concentrations of acetic acid) “control selected weeds”.
